Measurements published in PMC5866846 (Archives of Toxicology, 2017).
Like-named read-outs stand apart in the source and are kept apart here.

Assays:
[1] = system: upcyte hepatocytes 653-03 2D6; experiment: Tam metabolism in upcyte hepatocytes 653-03 2D6, metabolites in culture medium; assay type: in vitro ADME, human; conditions: cells incubated with 1 µM Tam up to 144 h; for concentration in the culture medium: 653-03 2D6
Procedure: (§1) The medium was replaced every 2–3 days. […].
(§2) The culture medium was collected after 24, 48, 72, 96 and 144 h followed by metabolite measurements using HPLC-ESI-MS/MS.
(§3) Protein was precipitated by the addition of ACN containing 1% of acetic acid and the corresponding deuterated internal standards to the same volume of the sample followed by centrifugation at 20.000 g for 15 min at RT. […] Analytes were separated on a Zorbax Eclipse Plus C18 column (1.8 µm, 100 × 2.1 mm, Agilent technologies) and detected on a 6460 triple quadrupole mass spectrometer (Agilent technologies) in positive ESI MRM mode. Glucuronides of estrogen-like metabolites were detected separately via MS/MS-measurements in negative ESI MRM mode.
(§4) […]. […] […].

CYP2B6 = CYP2B6 activity in upcyte hepatocytes after treatment (probe substrate cocktail); conditions: read-out: EC50 of induction of CYP2B6 activity; upcyte hepatocytes, 72 h, 50 pM to 5 µM
Procedure: (§5) Cells were cultivated in hepatocyte culture medium at 37 °C and 5 °% CO2 in a humidified incubator. Before starting experiments, cells were cultivated in hepatocyte culture medium containing 0.5% (v/v) DMSO (Preculture medium) for 5 days (density of 0.8 × 10^4 cells/cm^2) and were subcultivated in high-performance medium containing 0.1% (v/v) DMSO (Metabolism conditioning medium) for 3–5 days (density of 1.6 × 10^5 cells/cm^2, confluence). The medium was replaced every 2–3 days.
(§6) In HLM and supersome™ incubations the formation rate is given as nmol µg^−1 min^−1 and fmol pmol^−1 min^−1, respectively, and was calculated as the mean ± SD. […] The intrinsic Clearance (Clint) was given as Vmax/Km ratio. […] Activity of CYP enzymes in induction assays is given as the fold-change (mean ± SD) compared to the corresponding DMSO-treated control. […] Gene expression patterns of treated cells are given as fold-change compared to the corresponding DMSO-treated control samples, as described above. […] In induction and inhibition experiments corresponding EC50 and IC50 values were calculated by nonlinear regression. In all experiments a level of probability (p) ≤ 0.05 for statistical testing was considered significant.
(§7) As control 0.05 % DMSO was used. The basal CYP activity and induction of CYP activity compared to the DMSO control were measured via HPLC-ESI-MS/MS.

[2] = Formation kinetics of Tam-Bis, (Z)- and (E)-Met E in HLM with increasing substrate concentrations; assay type: in vitro ADME, human; conditions: substrate 1 to 50 µM, Michaelis-Menten
Procedure: The reaction was started by adding a NADPH regenerating system (5 mM MgCl2, 5 mM glucose-6-phosphate, 0.5 mM NADP^+ and 10 U glucose-6-phosphate-dehydrogenase in 100 mM sodium phosphate buffer pH 7.4) to the samples and immediately put in a 37 °C water bath for 30 min. The reaction was stopped with the same volume of acetonitrile (ACN) containing 1% of acetic acid together with the corresponding deuterated internal standards. Regarding incubations with Supersomes™ containing UGTs, 5 µg of protein was incubated with 250 mM MgCl2 and 2.5 ng of alamethicin for 30 min on ice, followed by 10 min at 37 °C in a water bath. Subsequently, the Supersomes™ were incubated with 10 µM of substrates (Tam-Bis, (E)- and (Z)-Met E) and the glucuronidation was started by addition of 10 mM of uridine 5′-diphospho-glucuronic acid to the samples in a water bath at 37 °C for 30 min. The reaction was stopped as described above. Metabolites were analyzed by HPLC-ESI-MS/MS.
For the assessment of formation kinetics of Tam-Bis, (E)- and (Z)-Metabolite E, HLM were incubated with increasing substrate concentrations ranging from 1 to 50 µM as described above. As control for each concentration a sample without NADPH-regenerating system was prepared. […]

CYP2C9 [3] = molecular target: T1, CYP2C9 (Homo sapiens, UniProt P11712); experiment: CYP2C9 activity in upcyte hepatocytes after treatment (probe substrate cocktail); assay type: cell-based; set-up: host or cells: upcyte hepatocytes 653-03 and 653-03 #138 (653-03 2D6); conditions: human
Procedure: as §5, §6, §7

CYP2C8 [4] = molecular target: T2, CYP2C8 (Homo sapiens, UniProt P10632); experiment: CYP2C8 activity in upcyte hepatocytes after treatment (probe substrate cocktail); assay type: cell-based; set-up: host or cells: upcyte hepatocytes 653-03 and 653-03 #138 (653-03 2D6)
T2 sequence (P10632 1-490): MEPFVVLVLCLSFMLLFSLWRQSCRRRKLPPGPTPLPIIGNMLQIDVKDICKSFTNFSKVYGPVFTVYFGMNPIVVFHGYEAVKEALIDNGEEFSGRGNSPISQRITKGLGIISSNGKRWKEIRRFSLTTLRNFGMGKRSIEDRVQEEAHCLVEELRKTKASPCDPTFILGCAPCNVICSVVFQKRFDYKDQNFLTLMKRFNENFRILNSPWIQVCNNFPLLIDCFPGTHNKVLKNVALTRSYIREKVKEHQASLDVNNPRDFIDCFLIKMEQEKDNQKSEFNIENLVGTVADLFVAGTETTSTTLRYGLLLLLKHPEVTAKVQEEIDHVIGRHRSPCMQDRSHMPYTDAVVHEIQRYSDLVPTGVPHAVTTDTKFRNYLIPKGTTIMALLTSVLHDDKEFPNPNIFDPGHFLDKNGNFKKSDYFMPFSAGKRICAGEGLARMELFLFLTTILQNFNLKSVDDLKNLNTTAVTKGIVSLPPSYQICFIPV
Procedure: as §5, §6, §7

CYP2C19 [5] = molecular target: T3, CYP2C19 (Homo sapiens, UniProt P33261); experiment: CYP2C19 activity in upcyte hepatocytes after treatment (probe substrate cocktail); assay type: cell-based; set-up: host or cells: upcyte hepatocytes 653-03 and 653-03 #138 (653-03 2D6); conditions: upcyte hepatocytes, 72 h, 50 pM to 5 µM; read-out: EC50 of induction of CYP2C19 activity
Procedure: as §5, §6, §7

CYP1A2 = CYP1A2 activity in upcyte hepatocytes after treatment (probe substrate cocktail); conditions: read-out: EC50 of induction of CYP1A2 activity, 72 h, 50 pM to 5 µM
Procedure: as §5, §6, §7

estrogen receptor = system: estrogen receptor; set-up: method as in Johnson et al. [1989]; Murphy et al. [1990]; conditions: in vitro, estrogen-dependent breast cancer cell lines; ref Johnson et al. [1989]; Murphy et al. [1990]; cited from earlier work
CYP1A1 gene expression = CYP1A1 gene expression in upcyte hepatocytes (Fluidigm RT-PCR); assay type: cell-based, human; conditions: 5 µM, 72 h, both cell strains
Description: Differences between induced and control samples were compared using Welch’s t-test (GraphPad Prism, version 5.04), when the fold-change was considered biologically relevant (1.5-fold increase or decrease in fold-changes) and corrected for multiple testing according to Bonferroni. […] An unpaired t-test assuming unequal variances was used for testing of differences in the expression patterns, when the fold-change was considered biologically relevant (1.5-fold increase or decrease in fold-changes) and corrected using Bonferroni adjustments.

CYP3A4 = CYP3A4 activity in upcyte hepatocytes after treatment (probe substrate cocktail); conditions: 72 h
Procedure: as §5, §6, §7

[6] = system: upcyte hepatocytes 653-03 and 653-03 2D6; experiment: Tam metabolism in upcyte hepatocytes, cell strain not distinguished; assay type: in vitro ADME, human; conditions: cells incubated with 1 µM Tam; highest concentration, decreased over time
Procedure: as §1, §2, §3, §4

[7] = system: upcyte hepatocytes 653-03; experiment: Tam metabolism in upcyte hepatocytes 653-03 (parental), metabolites in culture medium; assay type: in vitro ADME, human; conditions: cells incubated with 1 µM Tam up to 144 h, parental 653-03
Procedure: as §1, §2, §3, §4

CYP2C19 [8] = molecular target: T3, CYP2C19; experiment: Inhibition of CYP2C19 activity in HLM; assay type: in vitro ADME; conditions: human, human liver microsomes, 200 nM to 10 µM, 10 min pre-incubation
CYP2C9 [9] = molecular target: T1, CYP2C9; experiment: Inhibition of CYP2C9 activity in HLM; assay type: in vitro ADME; conditions: 200 nM to 10 µM, 10 min pre-incubation
CYP2C8 [10] = molecular target: T2, CYP2C8; experiment: Inhibition of CYP2C8 activity in HLM; assay type: in vitro ADME; conditions: 200 nM to 10 µM, 10 min pre-incubation
[11] = read-out: Km, (E)-Met E formation
[12] = read-out: Km, (Z)-Met E formation

T1 sequence (P11712 whole entry): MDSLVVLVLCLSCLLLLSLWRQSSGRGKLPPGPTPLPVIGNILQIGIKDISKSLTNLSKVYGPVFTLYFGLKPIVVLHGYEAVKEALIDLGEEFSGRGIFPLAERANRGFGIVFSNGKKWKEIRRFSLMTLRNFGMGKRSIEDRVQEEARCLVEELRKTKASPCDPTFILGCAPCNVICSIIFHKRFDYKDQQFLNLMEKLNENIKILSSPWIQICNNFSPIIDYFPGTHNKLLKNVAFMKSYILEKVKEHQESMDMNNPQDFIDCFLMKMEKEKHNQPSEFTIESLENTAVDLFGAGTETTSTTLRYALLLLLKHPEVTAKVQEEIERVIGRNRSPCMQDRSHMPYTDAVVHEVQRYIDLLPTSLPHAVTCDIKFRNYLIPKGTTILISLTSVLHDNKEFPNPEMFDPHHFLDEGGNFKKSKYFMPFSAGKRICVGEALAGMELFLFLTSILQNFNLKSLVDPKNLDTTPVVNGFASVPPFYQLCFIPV
T3 sequence (P33261 whole entry): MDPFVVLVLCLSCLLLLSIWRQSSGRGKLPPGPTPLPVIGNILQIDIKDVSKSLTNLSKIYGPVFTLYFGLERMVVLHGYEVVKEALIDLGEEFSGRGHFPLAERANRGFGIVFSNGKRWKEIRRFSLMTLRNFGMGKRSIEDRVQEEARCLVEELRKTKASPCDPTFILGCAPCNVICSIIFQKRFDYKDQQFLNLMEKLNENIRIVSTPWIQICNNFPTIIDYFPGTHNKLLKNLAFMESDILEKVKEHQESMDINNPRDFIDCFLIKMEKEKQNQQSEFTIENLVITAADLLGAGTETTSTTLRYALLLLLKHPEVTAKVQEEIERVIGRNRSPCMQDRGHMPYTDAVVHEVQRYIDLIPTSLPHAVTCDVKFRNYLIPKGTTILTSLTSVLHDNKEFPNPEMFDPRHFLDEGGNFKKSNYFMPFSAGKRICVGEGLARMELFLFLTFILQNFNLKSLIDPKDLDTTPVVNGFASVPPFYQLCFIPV

CC/C(=C(/c1ccc(OCCN(C)C)cc1)c1ccc(O[C@@H]2O[C@H](C(=O)O)[C@@H](O)[C@H](O)[C@H]2O)cc1)c1ccccc1 [4OH-Tam-glucuronide, tamoxifen-4-O-glucuronide]
concentration in the supernatant of 653-03 2D6 cells relative to parental cells [1]: up to 25 times

CCC(=C(c1ccccc1)c1ccc(O)cc1)c1ccccc1 [(Z)-Met E, 4-[1,2-diphenylbut-1-en-1-yl]phenol]
EC50 (CYP2B6): > 5 µM
V max, Bisphenol formation [2]: 17.2 pmol/mg/min
Km ([2]; read-out: Km, Bisphenol formation): 8.2 µM
EC50 at 72 h (CYP2C9 [3]; probe tolbutamide (100 µM), upcyte hepatocytes, 50 pM to 5 µM, read-out: EC50 of induction of CYP2C9 activity): > 5 µM
EC50 (CYP2C8 [4]; upcyte hepatocytes, 72 h, 50 pM to 5 µM, read-out: EC50 of induction of CYP2C8 activity): > 5 µM
EC50 (CYP2C19 [5]): > 5 µM
EC50 (CYP1A2): > 5 µM
agonism regarding estrogen-regulated mRNA expression (estrogen receptor): full agonists
CYP1A1 gene expression, induction vs DMSO control (CYP1A1 gene expression): 3.3 fold
induction of CYP3A4 activity compared to DMSO control (CYP3A4; 5 µM, parental and derived cell line): weakly induced
EC50 (CYP3A4; read-out: EC50 of induction of CYP3A4 activity, upcyte hepatocytes, 50 pM to 5 µM): 0.308 µM
concentration in the supernatant of the cells [6]: up to 440 pM

CC/C(=C(\c1ccccc1)c1ccc(OCCN)cc1)c1ccccc1 [DDM-Tam, N-didesmethyl-tamoxifen]
V max, (E)-Met E formation [2]: 0.70 pmol/mg/min
V max, (Z)-Met E formation [2]: 5.2 pmol/mg/min
Km [2, 11]: 20.7 µM
Km [2, 12]: 55.1 µM

CC/C(=C(\c1ccccc1)c1ccc(OCCNC)cc1)c1ccccc1 [DM-Tam, N-desmethyltamoxifen]
V max, (E)-Met E formation [2]: 0.32 pmol/mg/min
V max, (Z)-Met E formation [2]: 6.1 pmol/mg/min
Km [2, 11]: 11.5 µM
Km [2, 12]: 102 µM
concentration in the culture medium [1]: ≤ 14 nM
concentration in the culture medium [7]: up to 8 nM

CC/C(=C(\c1ccc(O)cc1)c1ccc(OCCNC)cc1)c1ccccc1 [Endox, (Z)-endoxifen]
inhibition at 72 h, 5 µM (CYP2C9 [3]; probe tolbutamide 100 µM, 5 µM): 63%
inhibition at 72 h, 5 µM (CYP2C8 [4]; human, upcyte hepatocytes 653-03 and 653-03 2D6, probe amodiaquine 5 µM, 5 µM, both cell lines): ≤ 90%
concentration in the culture medium [1]: up to 11 nM
IC50 at 15 min (CYP2C19 [8]): > 10 µM
IC50 (CYP2C9 [9]): > 10 µM
IC50 of CYP2C9 activity (CYP2C9 [9]): weakly inhibited
CYP1A1 gene expression, induction vs DMSO control (CYP1A1 gene expression): up to 2.3 fold
IC50 (CYP2C8 [10]): 8.1 µM
